Data as given in US9962341B2, “Active pharmaceutical ingredient (API) comprising cannabinoids for use in the treatment of cancer” (GW Pharma Limited, priority 2014, dated 2018).
Where two headings read alike, the source gives them in different places.

Legend:
Type in all cases: cell-based
Conditions in all cases: for IC50: Homo sapiens; for effect (but only 50% effect): extent of effect reached
SKBR3 = test: Cell viability (CellTiter-Blue, 72 h), SKBR3 breast cancer cells
Procedure: (§1) The cell lines tested in this Example were as follows. Breast cancer: MDA-MB-231; SK-BR3; and BT474. Liver cancer: HepG2.
(§2) The phytocannabinoids were tested alone and in various ratioed combinations in media containing final concentrations of 10% and 1% foetal bovine serum at 72 h for the breast and prostate cancer lines and 1% foetal bovine serum for the liver cancer line HepG2.
(§3) Each tumour cell line was maintained in vitro in RPMI 1640+10% heat inactivated FBS and 2 mM L-glutamine (growth media) at 37° C. in 5% CO2 and humidified conditions. The cells were harvested, washed, re-suspended into growth medium and counted. The cells were re-suspended into assay media (RPMI 1640+5% heat inactivated FBS+ and 2 mM L-glutamine) at 8×104-2×10^5 cells/ml (dependent upon cell type) and plated into the middle 240 wells of 384 well tissue culture plates (Corning CellBind, black-wall plates) 12.5 μl/well aliquots; 62.5 μl of growth media was aliquoted into the outer wells. There were 4 plates for each cell line. The plates were incubated overnight at 37° C., in 5% humidified CO2.
(§4) The phytocannabinoid test compounds were prepared in 100% DMSO vehicle at a stock concentration of 10 mM.
(§5) Starting with the 10 mM stock, the compounds were diluted to 125 μM in FBS-free growth media.
(§6) These were diluted in FBS-free growth media to 125 μM before serial dilution.
(§7) 5 volumes of CBD 10 mM stock was added to 1 volume of the other agent (also at 10 mM) and 4 volumes of DMSO. This made a final concentration of 5 mM:1 mM. This was then diluted in FBS-free growth media so the top concentration of CBD would be 125 μM (before serial dilution). Each compound and compound combination stock was serially diluted in FBS-free growth media (containing 1.25% v/v DMSO) from 125 μM to 41.7, 13.89, 4.63, 1.54, 0.514, 0.171, 0.057 and 0.019 μM (1.25× final assay concentrations). Vehicle was prepared at equivalent dilutions in assay media. The top final concentration of compound in the assay was always 100 μM so CBD5:1CBG was 100 μM CBD and 20 μM CBG.
(§8) Taxotere SOC was prepared at a stock concentration of 1 mM in 100% DMSO. Taxotere was serially diluted from the stock solution into FBS-free growth media to 12.5 μM, then serially diluted in FBS-free growth media containing 1.25% DMSO to 4.17, 1.39, 0.46, 0.154, 0.051, 0.017, 0.006, 0.002 μM (1.25× final assay concentrations).
(§9) This was then serially diluted in FBS-free growth media to 0.417, 0.139, 0.046, 0.0154, 0.0051, 0.0017, 0.0006, 0.0002 μM (1.25× final assay concentrations). This was plated as a positive control for the SKBR3 & BT474 cell lines. 50 μl per well of compound/vehicle dilutions was added to the plates in replicates of 6. Where applicable total volume in the well was made up to 62.5 μl with assay media.
(§10) The plates were incubated for 72 h at 37° C. in 5% humidified CO2. To develop the plates, at 72 h, 10 μl of CellTiter-Blue™ reagent was added to each test/blank well. The plates were incubated at 37° C., 5% humidified CO2. Fluorescence was measured using a Flex II Station plate reader (570 nm excitation wavelength, 600 nm emission wavelength, 590 nm cut-off) after 3 h.
(§11) The experimental conditions were the same as the experiment above, with the same compound dilutions and volumes for plating but using growth media containing 10% FBS rather than FBS-free media.
(§12) The raw data values expressed in relative fluorescent units were normalised to the vehicle for each individual plate and any reduction in fluorescence indicated a decrease in viability.
(§13) The data were analysed in GraphPad PRISM using a non-linear sigmoidal plot with variable slope (asymmetric five point linear regression) and where possible an IC50 value for each single compound and combination was generated.
(§14) For the calculation, raw data values expressed in relative fluorescent units were normalised to the vehicle for each individual plate (set as 0%) and the reduction in fluorescence calculated as an increase in inhibition of viability.

BT474 = test: Cell viability (CellTiter-Blue, 72 h), phytocannabinoids alone and in combination, BT474 breast cancer cells
Procedure: as §1, §2, §3, §4, §5, §6, §7, §8, §9, §10, §11, §12, §13, §14

MDA-MB-231 = test: Cell viability (CellTiter-Blue, 72 h), MDA-MB-231 breast cancer cells
Procedure: as §1, §2, §3, §4, §5, §6, §7, §8, §10, §11, §12, §13, §14
The data was formatted in Excel for each assay plate so that the average effect at each concentration for each separate phytocannabinoid and each of the combinations could be determined.
The mean data at each concentration of CBD was imported into the analysis package Calcusyn. Calcusyn software was designed by M. Hayball and C.

[1] = SK-BR-3, 72 h, read-out: IC50 values, SKBR3, 1% FBS, 72 h
[2] = SK-BR-3, 72 h, read-out: IC50 values, SKBR3, 10% FBS, 72 h
[3] = SK-BR-3, read-out: Dm (median effect dose), SKBR3, 1% FBS, Calcusyn median-effect analysis
[4] = BT-474, 72 h, BT474, 1% FBS, 72 h, read-out: IC50 values
[5] = BT-474, 72 h, BT474, 10% FBS, 72 h, read-out: IC50 values
[6] = BT-474, BT474, 1% FBS, Calcusyn median-effect analysis, read-out: Dm (median effect dose)
[7] = MDA-MB-231, 72 h, read-out: IC50 values, MDA-MB-231, 1% FBS, 72 h
[8] = MDA-MB-231, 72 h, read-out: IC50 values, MDA-MB-231, 10% FBS, 72 h
[9] = MDA-MB-231, read-out: Dm (median effect dose), MDA-MB-231, 1% FBS, Calcusyn median-effect analysis

Compound | IC50 (SKBR3; [1]) | IC50 (SKBR3; [2]) | IC50 (SKBR3; [3]) | IC50 (BT474; [4]) | IC50 (BT474; [5]) | IC50 (BT474; [6]) | IC50 (MDA-MB-231; [7]) | IC50 (MDA-MB-231; [8]) | IC50 (MDA-MB-231; [9]) | IC50 values (MDA-MB-231; MDA-MB-231, 10% FBS, 72 h) | effect (but only 50% effect) (SKBR3; SKBR3, 1% FBS) | effect (but only 50% effect) (SKBR3; SKBR3, 10% FBS) | effect (but only 50% effect) (BT474; BT474, 1% FBS) | effect (but only 50% effect) (BT474; BT474, 10% FBS) | effect (but only 50% effect) (MDA-MB-231; MDA-MB-231, 1% FBS) | effect (but only 50% effect) (MDA-MB-231; MDA-MB-231, 10% FBS)
C=C(C)[C@@H]1CCC(C)=C[C@H]1c1c(O)cc(CCCCC)cc1O [CBD, Cannabidiol] | 4 µM | 23 µM | 9.31 µM | 8 µM | 28 µM | 16.9 µM | 7.4 µM | 27 µM | 5.61 µM |  |  |  |  |  |  | 
C=C(C)[C@@H]1CCC(C)=C[C@H]1c1c(O)cc(CCCCC)c(C(=O)O)c1O [CBDA, Cannabidiolic acid] | 14.5 µM | ~100 µM | 30 µM | 21.8 µM | > 100 µM | 43.3 µM | 30 µM |  | 20 µM | NE at 100 μM |  |  |  |  |  | 
CCCCCc1cc(O)c(C/C=C(\C)CCC=C(C)C)c(O)c1 [CBG, Cannabigerol] | 4 µM | 33 µM | 8.55 µM | 7.9 µM | 37 µM | 14.8 µM | 4.1 µM | 29 µM | 14.2 µM |  |  |  |  |  |  | 
CCCCCc1cc(O)c(C/C=C(\C)CCC=C(C)C)c(O)c1C(=O)O [CBGA, Cannabigerolic acid] | 10.6 µM | > 100 µM | 16.8 µM | 24.8 µM | ~100 µM | 27.9 µM | 16 µM | ~100 µM | 43.5 µM |  |  |  |  |  |  | 
CCCc1cc(O)c2c(c1)OC(C)(C)[C@@H]1CCC(C)=C[C@@H]21 [THCV, Tetrahydrocannabivarin] | 10.8 µM | 30 µM | 18.3 µM | 13.3 µM | 31 µM | 20.3 µM | 14.4 µM | 36 µM | 39 µM |  |  |  |  |  |  | 
CC(=O)O[C@@]12CO[C@@H]1C[C@H](O)[C@@]1(C)C(=O)[C@H](O)C3=C(C)[C@@H](OC(=O)[C@H](O)[C@@H](NC(=O)OC(C)(C)C)c4ccccc4)C[C@@](O)([C@@H](OC(=O)c4ccccc4)[C@H]21)C3(C)C [Taxotere, Docetaxel, reference compound] | < 0.001 µM | < 0.001 µM |  | < 0.001 µM | < 0.001 µM |  | < 0.001 µM | < 0.001 µM |  |  | only 50% | 50% effect) | only 50% | 50% effect) | only 50% | only 50%
